Assay results taken from patent US8889425B2 (Bayerische Julius-Maximilians-Universität Würzburg, priority 2003, dated 2014).

How the values were obtained:
[1] = tested on: adenosine A2B receptor (CHO cells; single binding domain EPAC2 sensors); test: single cell FRET, CHO cells expressing adenosine A2B receptor, EPAC2 sensors; assay type: cell-based; conditions: 24 hours after transfection, single living cells
Description: Transfected cells were analyzed 24 h later.

[2] = tested on: adenylyl cyclase; test: FRET signal with direct activators of adenylyl cyclase in cells; assay type: cell-based
[3] = tested on: endogenous beta2-adrenergic receptors (HEK293 cells; murine HCN2 (A467-K638) sensor); conditions: 10 μM isoproterenol
Description: FIG. 12. […] B. FRET measurements in living HEK293 cells stimulated with 10 μM isoproterenol via endogenous beta2-adrenergic receptors. Cells were transfected with HCN2-based (A467-K638) sensor.
Samples were excited with a light from Polychrom IV (Till Photonics). […] The imaging data were analyzed by MetaMorph 5.0r6 software (Universal Imaging Corp.) and corrected for spillover of CFP into 535 nm channel, as well as for acceptor photobleaching to give a corrected ratio F535 nm/F480 nm.

## Nc1ncnc2c1ncn2[C@@H]1O[C@H](CO)[C@@H](O)[C@H]1O [adenosine]
[1]
  FRET between YFP and CFP upon adenosine: decrease of FRET

## C=C[C@@]1(C)CC(=O)[C@]2(O)[C@@]3(C)[C@@H](O)CCC(C)(C)[C@@H]3[C@H](O)[C@H](OC(C)=O)[C@@]2(C)O1 [forskolin]
[2]
  FRET-signal: detectable FRET-signal

## CC(C)NCC(O)c1ccc(O)c(O)c1 (stereo not drawn) [isoproterenol]
[3]
  cAMP-dependent FRET change upon isoproterenol: decrease in FRET
